Measured values from paper PMC9897788, “Design, synthesis and cytotoxic evaluation of novel bis-thiazole derivatives as preferential Pim1 kinase inhibitors with in vivo and in silico study” (Journal of Enzyme Inhibition and Medicinal Chemistry, 2023).

Key:
Assay in all cases: NCI 60 cell one-dose screening (SRB)
Type in all cases: cell-based
A498 = conditions: Homo sapiens; A498, Renal Cancer; single dose 10 µM, 48 h; read-out: Percentage of cellular growth inhibition
Procedure: (§1) The 60 cancerous cell panel screening was performed following the Developmental Therapeutics Program (DTP) of the National Cancer Institute (NIH-NCI), USA. A single dose of 10 µM was used to perform the screening at 48 h incubation and the results were achieved as cancerous cell growth percentage relative to the no-drug control that was converted to an inhibition percentage by subtracting from 100.The cancerous cell lines were grown in RPMI 1640 medium containing 5% foetal bovine serum and 2 mM L-glutamine at 37 °C, 5% CO2, 95% air and 100% relative humidity for 24 h prior to addition of the tested compounds. After 24 h, two plates of each cell line were fixed in situ with TCA to represent a measurement of the cell population for each cell line at the time of drug addition (Tz). Compounds were dissolved in DMSO at 400-fold the desired final maximum test concentration and stored frozen prior to use. At the time of drug addition, an aliquot of frozen concentrate was thawed and diluted to twice the desired final maximum test concentration with complete medium containing 50 µg/mL gentamicin. Aliquots of 100 µL of the compounds dilution was added to the appropriate micro titre wells already containing 100 µL of medium, resulting in the required final drug concentrations of 10 µM. Following compounds addition, the plates were incubated for an additional 48 h at 37 °C, 5% CO2, 95% air, and 100% relative humidity. For adherent cells, the assay was terminated by the addition of cold TCA. Cells were fixed in situ by the gentle addition of 50 µL of cold 50% (w/v) TCA (final concentration, 10% TCA) and incubated for 60 min at 4 °C. The supernatant was discarded, and the plates were washed five times with tap water and air dried. Sulphorhodamine B (SRB) solution (100 µL) at 0.4% (w/v) in 1% acetic acid is added to each well, and plates are incubated for 10 min at room temperature. After staining, unbound dye was removed by washing five times with 1% acetic acid and the plates were air dried. Bound stain was subsequently solubilised with 10 mM trizma base, and the absorbance was read on an automated plate reader at a wavelength of 515 nm. For suspension cells, the methodology was the same except that the assay was terminated by fixing settled cells at the bottom of the wells by gently adding 50 µL of 80% TCA (final concentration, 16% TCA). Using the seven absorbance measurements [time zero, (Tz), control growth, I, and test growth in the presence of drug at the five concentration levels (Ti)], the percentage growth was calculated as: [(Ti−Tz)/(C−Tz)]×100 for concentrations for which Ti>/=Tz [(Ti−Tz)/Tz]×100 for concentrations for which Ti<Tz.

ACHN = conditions: Homo sapiens, Renal Cancer, single dose 10 µM, 48 h, read-out: Percentage of cellular growth inhibition
Procedure: as §1

BT-549 = conditions: Homo sapiens; BT-549, Breast Cancer; single dose 10 µM, 48 h; read-out: Percentage of cellular growth inhibition
Procedure: as §1

CCRF-CEM = conditions: Homo sapiens, Leukemia, single dose 10 µM, 48 h, read-out: Percentage of cellular growth inhibition
Procedure: as §1

EKVX = conditions: Homo sapiens, Non-Small Cell Lung Cancer, single dose 10 µM, 48 h, read-out: Percentage of cellular growth inhibition
Procedure: as §1

HCC-2998 = conditions: Homo sapiens; HCC-2998, Colon Cancer; single dose 10 µM, 48 h; read-out: Percentage of cellular growth inhibition
Procedure: as §1

HS 578T = conditions: Homo sapiens, Breast Cancer, single dose 10 µM, 48 h, read-out: Percentage of cellular growth inhibition
Procedure: as §1

HT29 = conditions: Homo sapiens, HT-29; HT29, Colon Cancer; single dose 10 µM, 48 h; read-out: Percentage of cellular growth inhibition
Procedure: as §1

M14 = conditions: Homo sapiens; M14, Melanoma; single dose 10 µM, 48 h; read-out: Percentage of cellular growth inhibition
Procedure: as §1

MDA-MB-435 = conditions: Homo sapiens; MDA-MB-435, Melanoma; single dose 10 µM, 48 h; read-out: Percentage of cellular growth inhibition
Procedure: as §1

MDA-MB-468 = conditions: Homo sapiens; MDA-MB-468, Breast Cancer; single dose 10 µM, 48 h; read-out: Percentage of cellular growth inhibition
Procedure: as §1

MOLT-4 = conditions: Homo sapiens; MOLT-4, Leukemia; single dose 10 µM, 48 h; read-out: Percentage of cellular growth inhibition
Procedure: as §1

NCI-H460 = conditions: Homo sapiens; NCI-H460, Non-Small Cell Lung Cancer; single dose 10 µM, 48 h; read-out: Percentage of cellular growth inhibition
Procedure: as §1

OVCAR-4 = conditions: Homo sapiens; OVCAR-4, Ovarian Cancer; single dose 10 µM, 48 h; read-out: Percentage of cellular growth inhibition
Procedure: as §1

SF-268 = conditions: Homo sapiens; SF-268, CNS Cancer; single dose 10 µM, 48 h; read-out: Percentage of cellular growth inhibition
Procedure: as §1

SF-539 = conditions: Homo sapiens; SF-539, CNS Cancer; single dose 10 µM, 48 h; read-out: Percentage of cellular growth inhibition
Procedure: as §1

SK-MEL-28 = conditions: Homo sapiens; SK-MEL-28, Melanoma; single dose 10 µM, 48 h; read-out: Percentage of cellular growth inhibition
Procedure: as §1

SK-OV-3 = conditions: Homo sapiens; SK-OV-3, Ovarian Cancer; single dose 10 µM, 48 h; read-out: Percentage of cellular growth inhibition
Procedure: as §1

SN12C = conditions: Homo sapiens, Renal Cancer, single dose 10 µM, 48 h, read-out: Percentage of cellular growth inhibition
Procedure: as §1

SW-620 = conditions: Homo sapiens; SW-620, Colon Cancer; single dose 10 µM, 48 h; read-out: Percentage of cellular growth inhibition
Procedure: as §1

UACC-257 = conditions: Homo sapiens; UACC-257, Melanoma; single dose 10 µM, 48 h; read-out: Percentage of cellular growth inhibition
Procedure: as §1

With `Cc1csc(Nc2cccc(Nc3nc(C)cs3)c2)n1` [3a, N^1,N^3-bis(4-methylthiazol-2-yl)benzene-1,3-diamine] the inhibition at 10 µM (A498) was 51.2%, the inhibition at 10 µM (ACHN) was 20.7% and the inhibition at 10 µM (BT-549) was -24.4%. It also gave an inhibition at 10 µM (CCRF-CEM) of 1.5%, an inhibition at 10 µM (EKVX) of 14.7% and an inhibition at 10 µM (HCC-2998) of -4.2%. For the same molecule, the inhibition at 10 µM (HS 578T) was 7.9%, the inhibition at 10 µM (HT29) was -6.8% and the inhibition at 10 µM (M14) was -7.3%. It also gave an inhibition at 10 µM (MDA-MB-435) of 4%, an inhibition at 10 µM (MDA-MB-468) of 15.9% and an inhibition at 10 µM (MOLT-4) of 44%. For the same molecule, the inhibition at 10 µM (NCI-H460) was 1.6%, the inhibition at 10 µM (OVCAR-4) was 11.8% and the inhibition at 10 µM (SF-268) was 1.4%. For the same molecule, the inhibition at 10 µM (SF-539) was 7.9%, the inhibition at 10 µM (SK-MEL-28) was 10.4% and the inhibition at 10 µM (SK-OV-3) was 10.7%. The inhibition at 10 µM (SN12C) was 13.8%, the inhibition at 10 µM (SW-620) was -3.6% and the inhibition at 10 µM (UACC-257) was -21.6%.
Molecule `CC(=O)c1sc(Nc2cccc(Nc3nc(C)c(C(C)=O)s3)c2)nc1C` [3b, 1,1’-(2,2’-(1,3-Phenylenebis(azanediyl))bis(4-methylthiazole-5,2-diyl))diethanone] has an inhibition at 10 µM (A498) of 72.3%, an inhibition at 10 µM (ACHN) of 63.5% and an inhibition at 10 µM (BT-549) of 53.8%. For the same molecule, the inhibition at 10 µM (CCRF-CEM) was 38.8%, the inhibition at 10 µM (EKVX) was 31.2% and the inhibition at 10 µM (HCC-2998) was 19.9%. It also gave an inhibition at 10 µM (HS 578T) of 47.3%, an inhibition at 10 µM (HT29) of 30% and an inhibition at 10 µM (M14) of 48.7%. For the same molecule, the inhibition at 10 µM (MDA-MB-435) was 40.9%, the inhibition at 10 µM (MDA-MB-468) was 45% and the inhibition at 10 µM (MOLT-4) was 61.7%. For the same molecule, the inhibition at 10 µM (NCI-H460) was 54.4%, the inhibition at 10 µM (OVCAR-4) was 48.5% and the inhibition at 10 µM (SF-268) was 28.9%. It also gave an inhibition at 10 µM (SF-539) of 27.8%, an inhibition at 10 µM (SK-MEL-28) of 28.5% and an inhibition at 10 µM (SK-OV-3) of 74.2%. It also gave an inhibition at 10 µM (SN12C) of 45%, an inhibition at 10 µM (SW-620) of 37.5% and an inhibition at 10 µM (UACC-257) of 11.3%.
`CCOC(=O)c1sc(Nc2cccc(Nc3nc(C)c(C(=O)OCC)s3)c2)nc1C` [3c, Diethyl 2,2’-(1,3-phenylenebis(azanediyl))bis(4-methylthiazole-5-carboxylate)] was tested, and the inhibition at 10 µM (A498) was 52.7%, the inhibition at 10 µM (ACHN) was 24.6% and the inhibition at 10 µM (BT-549) was 26.3%. It also gave an inhibition at 10 µM (CCRF-CEM) of 11%, an inhibition at 10 µM (EKVX) of 38.6% and an inhibition at 10 µM (HCC-2998) of 9.7%. For the same molecule, the inhibition at 10 µM (HS 578T) was 14.7%, the inhibition at 10 µM (HT29) was -4.7% and the inhibition at 10 µM (M14) was 14%. For the same molecule, the inhibition at 10 µM (MDA-MB-435) was 17.9%, the inhibition at 10 µM (MDA-MB-468) was 52.4% and the inhibition at 10 µM (MOLT-4) was 29.2%. The inhibition at 10 µM (NCI-H460) was 23.5%, the inhibition at 10 µM (OVCAR-4) was 33.2% and the inhibition at 10 µM (SF-268) was 14.8%. It also gave an inhibition at 10 µM (SF-539) of 16.2%, an inhibition at 10 µM (SK-MEL-28) of 15.7% and an inhibition at 10 µM (SK-OV-3) of 1.3%. It also gave an inhibition at 10 µM (SN12C) of 11.8%, an inhibition at 10 µM (SW-620) of 11.4% and an inhibition at 10 µM (UACC-257) of 10.3%.
`Cc1nc(Nc2cccc(Nc3nc(C)c(N=Nc4ccccc4)s3)c2)sc1N=Nc1ccccc1` [5a, N^1,N^3-bis(4-methyl-5-(phenyldiazenyl)thiazol-2-yl)benzene-1,3-diamine] showed an inhibition at 10 µM (A498) of 1.2%, an inhibition at 10 µM (ACHN) of 38.3% and an inhibition at 10 µM (BT-549) of 5.8%. The inhibition at 10 µM (CCRF-CEM) was 12.3%, the inhibition at 10 µM (EKVX) was 16.9% and the inhibition at 10 µM (HCC-2998) was -0.4%. For the same molecule, the inhibition at 10 µM (HS 578T) was 19.8%, the inhibition at 10 µM (HT29) was 2% and the inhibition at 10 µM (M14) was -7.6%. The inhibition at 10 µM (MDA-MB-435) was 7.9%, the inhibition at 10 µM (MDA-MB-468) was 29.4% and the inhibition at 10 µM (MOLT-4) was 32.6%. It also gave an inhibition at 10 µM (NCI-H460) of 3.2%, an inhibition at 10 µM (OVCAR-4) of 30.8% and an inhibition at 10 µM (SF-268) of 42.4%. It also gave an inhibition at 10 µM (SF-539) of 15.4%, an inhibition at 10 µM (SK-MEL-28) of 2.5% and an inhibition at 10 µM (SK-OV-3) of -6.6%. It also gave an inhibition at 10 µM (SN12C) of 53.9%, an inhibition at 10 µM (SW-620) of 9.4% and an inhibition at 10 µM (UACC-257) of 2.7%.
